Measurements reported in patent US6413782B1, “Methods of manufacturing high-throughput screening systems” (priority 1996, dated 2002).

Biological target: β-galactosidase (Escherichia coli, UniProt P00722)
Assay: Enzyme inhibitor screen in planar chip format (continuous flow, fluorogenic substrate FDG)
Type: biochemical
Details: IPTG 200 mM in inhibitor well; β-Galactosidase 180 U/ml; substrate FDG 400 μM; 20 mM Tris pH 8.5; versus buffer control
Description: The numbers adjacent the channels represent the lengths of each channel in millimeters. Two voltage states were applied to the ports of the chip. […] A control experiment was also run in which buffer was placed into the inhibitor well.
Enzyme: β-Galactosidase (180 U/ml in 50 mM Tris/ 300 μg/ml BSA
Substrate: Fluorescein-digalactoside (FDG) 400 μM
Buffer: 20 mM Tris, pH 8.5
Enzyme and substrate were continually pumped through the main channel from their respective ports under both voltage states. Inhibitor or Buffer were delivered into the main channel alternately from their respective wells by alternating between voltage state 1 and voltage state 2. When no inhibitor was present at the detection end of the main channel, a base line level of fluorescent product was produced. […] FIG. 9B a superposition of the two data segments from FIG. 9A, directly comparing the inhibitor data with control (buffer) data.

β-galactosidase, sequence (P00722 2-1024): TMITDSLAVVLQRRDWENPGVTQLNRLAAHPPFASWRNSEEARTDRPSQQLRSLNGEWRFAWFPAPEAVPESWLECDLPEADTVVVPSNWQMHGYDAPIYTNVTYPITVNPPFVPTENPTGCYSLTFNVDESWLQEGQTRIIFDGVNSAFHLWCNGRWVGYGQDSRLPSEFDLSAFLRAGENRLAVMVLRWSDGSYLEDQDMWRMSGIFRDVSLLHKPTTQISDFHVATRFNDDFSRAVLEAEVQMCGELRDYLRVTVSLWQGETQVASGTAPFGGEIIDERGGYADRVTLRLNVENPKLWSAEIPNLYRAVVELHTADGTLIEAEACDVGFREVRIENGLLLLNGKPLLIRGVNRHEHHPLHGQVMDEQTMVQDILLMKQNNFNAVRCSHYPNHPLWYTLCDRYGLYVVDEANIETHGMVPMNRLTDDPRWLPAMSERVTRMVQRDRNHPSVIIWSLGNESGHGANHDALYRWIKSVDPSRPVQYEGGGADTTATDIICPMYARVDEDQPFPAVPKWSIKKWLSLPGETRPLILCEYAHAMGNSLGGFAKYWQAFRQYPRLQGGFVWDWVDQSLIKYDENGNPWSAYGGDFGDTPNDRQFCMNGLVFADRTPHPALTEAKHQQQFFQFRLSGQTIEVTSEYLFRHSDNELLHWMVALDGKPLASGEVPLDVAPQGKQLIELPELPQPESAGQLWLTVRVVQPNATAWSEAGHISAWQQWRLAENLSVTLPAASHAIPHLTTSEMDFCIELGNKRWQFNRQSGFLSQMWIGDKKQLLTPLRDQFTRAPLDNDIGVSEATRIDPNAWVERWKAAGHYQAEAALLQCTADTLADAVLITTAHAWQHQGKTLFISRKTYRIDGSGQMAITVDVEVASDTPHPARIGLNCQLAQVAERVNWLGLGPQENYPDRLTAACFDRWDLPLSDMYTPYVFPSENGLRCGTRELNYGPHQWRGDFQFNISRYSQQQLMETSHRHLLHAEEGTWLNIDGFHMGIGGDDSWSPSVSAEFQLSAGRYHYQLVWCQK

## CC(C)S[C@@H]1O[C@H](CO)[C@H](O)[C@H](O)[C@H]1O [IPTG]
  fluorescent signal upon introduction of inhibitor (inhibition of the enzyme/substrate interaction): greatly reduced
